These results are taken from patent publication US20250091989A1, “SMALL MOLECULE PROTEIN SYNTHESIS MODULATORS” (Interdict Bio, Inc., priority 2023, published 2025).

Where a name gives a salt, the structure may show the parent alone.

What all share (assay type): biochemical
What all share (settings): HeLa S3 lysate, sfGFP/mCherry ratio, 2 hrs at 30° C.

One assay deals with KRAS G12D. The experiment in a line: In vitro transcription-translation (IVTT) reporter assay, KRAS G12D test sequence. The text has this: All reporter constructs have been cloned into the pT7CFE1-CHis plasmid (ThermoFisher #88860) using Gibson assembly procedures (NEB #E2611L). The parental pT7CFE1-CHis plasmid contains an EMCV IRES at the 5′UTR for translation initiation, a multiple-cloning site (MCS) for gene insertion, an optional C-terminal His-epitope tag, and polyA sequence in the 3′UTR to regulate mRNA stability. All reporters are designed to be inserted at the MCS to include a red fluorescent protein (mCherry), P2A self-cleaving peptide which releases the preceding mCherry protein product, and a fusion open reading frame containing a 3×FLAG epitope, a peptide sequence of interest (TEST), and green fluorescent protein (sfGFP).
Construct Plasmid Preparation: All plasmids are isolated from MACH1 cells (ThermoFisher) grown overnight in ampicillin-containing luria broth, and purified using ZymoPure Express Plasmid Midiprep Kit (Zymo Research). Constructs are sequenced verified and diluted to a working concentration of 110 ng/μL.
HeLa S3 Lysate Preparation: HeLa S3 cell pellets are acquired from Ipracell/Ipratech (Belgium) and shipped as 4 mL frozen cell pellets on dry ice for storage at −80° C. until use. The procedure for lysate preparation is as follows. Prepare 1× Lysis Buffer, cold and stored on ice:
Each preparation takes 8 cell pellets (4 ml packed volume each, approximately 1.0×10^9 cells per pellet). Thaw cell pellets from −80° C. on ice for 90 mins. Lay pellets horizontally on top of the ice and rotate every 30 mins to ensure even thawing. Once thawed, add 4 mL of cold lysis buffer to each pellet, and using a serological pipet, gently pipet up and down to break up clumps. Incubate resuspended cells in ice for an additional 30 mins (plunged into ice). During 30 min incubation, rinse and RNase-zap (Ambion) glass dounces (use loose pestle “A”), gently dry and place on ice until needed. Prepare RNase-free Eppendorf tubes for spinning and for batch storage. Add batch labels to 1.5-1.7 mL RNase-free microcentrifuge tubes (labeling scheme below). Each batch will have an extra 1.5-1.7 mL RNase-free microcentrifuge tube for 40 μL of lysate, label the top of this tube (labeling scheme below). After 30 min incubation, transfer all 8 mL of cell pellet to dounce. Cell lysis is complete after douncing 100 times. Aliquot cell lysis into 1.5-1.7 mL temporary-microcentrifuge tubes. Place tubes in centrifuge with “fins” out, and spin at 1,200 xg for 5 mins. After the first spin use a 1 mL pipet to resuspend each tube and repeat spin. This acts as an additional lysis step, is more vigorous and increases lysate yield. During second spin get liquid N2 and a fresh conical tube on ice.
After spin is complete, transfer supernatant (lysate) from microcentrifuge tubes into the 50 mL conical tube and keep on ice. Repeat steps 10-14 for all other cell pellets until completed. Once all cell lysate has been transferred to the 50 mL conical tube pipet to mix so the solution is homogenous. Transfer 1 mL of lysate into batch-labeled microcentrifuge tubes and flash freeze in liquid nitrogen. Be sure to pipet up and down to mix throughout transfer step. Place all tubes in the […] for long-term storage.
In vitro transcription-translation assay setup: Each assay includes a master mix containing lysate and shared components, a 96-well plate containing compound titrations for testing, a 96-well DNA plate with reporter constructs to be tested, 96-well skirted PCR plates, and 96-well flat-bottom, black, fluorescent assay plates. […]
In general terms: A reporter such as luciferase makes a cellular process visible.

In a further assay the test system is MYC. Nature of the assay: In vitro transcription-translation (IVTT) reporter assay, MYC test sequence. Put shortly: (§1)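 Coupled transcription-translation in HeLa S3 lysate with reporter plasmids encoding mCherry-P2A-3×FLAG-TEST-sfGFP behind an EMCV IRES. Compounds were half-log titrated (30 μM-0.1 μM in DMSO dilution plate) into master mix, then DNA was added. Reactions ran 2 hrs at 30° C, were PBS-quenched and read for fluorescence.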

The next assay has as its system ALK. The experiment in a line: In vitro transcription-translation (IVTT) reporter assay, ALK test sequence. In outline: as §1

For `CCC1(C(=O)O[C@@H]2[C@@H](O)CN[C@@H]2Cc2ccc(OC)cc2)COC1` [V186781, (2R,3S,4S)-4-hydroxy-2-[(4-methoxyphenyl)methyl]pyrrolidin-3-yl 3-ethyloxetane-3-carboxylate], the IC50 in the assay with KRAS G12D, in the assay with MYC and in the assay with ALK was over 30 µM throughout.
Regarding `COCCOCC(=O)O[C@@H]1[C@@H](O)CN[C@@H]1Cc1ccc(OC)cc1` [V186783], the IC50 in the assay on KRAS G12D, in the assay with MYC and in the assay with ALK was under 10 µM each time.
As to `COc1ccc(C[C@H]2NC[C@H](O)[C@H]2OC(=O)CC(C)(C)O)cc1` [V186784, (2R,3S,4S)-4-hydroxy-2-[(4-methoxyphenyl)methyl]pyrrolidin-3-yl 3-hydroxy-3-methylbutanoate], the half-inhibitory concentration (IC50) in the assay on KRAS G12D is 10 to 20 µM; in the assay on MYC, under 10 µM; in the assay with ALK, under 10 µM.
For the compound `COc1ccc(C[C@H]2NC[C@H](O)[C@H]2OC(=O)C(C)(C)O)cc1` [V186785, (2R,3S,4S)-4-hydroxy-2-[(4-methoxyphenyl)methyl]pyrrolidin-3-yl 2-hydroxy-2-methylpropanoate], the IC50 is over 30 µM in the assay with KRAS G12D, over 30 µM in the assay on MYC and under 10 µM in the assay with ALK.
Turning to `CC(=O)O[C@@H]1[C@@H](O)CN[C@@H]1Cc1ccccc1` [V186810, (2R,3S,4S)-2-benzyl-4-hydroxy pyrrolidin-3-yl acetate], the IC50 in the assay on KRAS G12D, in the assay with MYC and in the assay on ALK was under 10 µM in each case.
For the compound `COc1ccc(C[C@H]2NC[C@H](O)[C@H]2OC(=O)[C@H]2CCCO2)cc1` [V186824, (2R,3S,4S)-4-hydroxy-2-[(4-methoxyphenyl)methyl]pyrrolidin-3-yl (2R)-oxolane-2-carboxylate], the concentration for half-maximal inhibition (IC50) in the assay on KRAS G12D is over 30 µM; with MYC it was over 30 µM; with ALK, under 10 µM.
Take `COc1ccc(C[C@H]2NC[C@H](O)[C@H]2OC(=O)[C@@H]2CCCO2)cc1` [V186825, (2R,3S,4S)-4-hydroxy-2-[(4-methoxyphenyl)methyl]pyrrolidin-3-yl (2S)-oxolane-2-carboxylate]: the IC50 in the assay with KRAS G12D, in the assay on MYC and in the assay with ALK was under 10 µM in each case.
For the compound `COc1ccc(C[C@H]2NC[C@H](O)[C@H]2OC(=O)CCN2CC(=O)NCC2=O)cc1` [V186849, (2R,3S,4S)-4-hydroxy-2-[(4-methoxyphenyl)methyl]pyrrolidin-3-yl 3-(2,5-dioxopiperazin-1-yl)propanoate], the IC50 is over 30 µM with KRAS G12D, 10 to 20 µM in the assay on MYC and under 10 µM with ALK.
Taken in the same sequence, the figures for `COc1ccc(C[C@H]2NC[C@H](O)[C@H]2OC(=O)CCN2CC(=O)N(C)CC2=O)cc1` [V186850] were over 30 µM, over 30 µM and 20 to 30 µM.
On the same counts, the results for `COc1ccc(C[C@H]2NC[C@H](O)[C@H]2OC(=O)CCN2CCNCC2)cc1` [V186857, (2R,3S,4S)-4-hydroxy-2-[(4-methoxyphenyl)methyl]pyrrolidin-3-yl 3-(piperazin-1-yl)propanoate] are over 30 µM, over 30 µM and under 10 µM.
On the same counts, the results for `COc1ccc(C[C@H]2NC[C@H](O)[C@H]2OC(=O)CCN2CCN(C)CC2)cc1` [V186858, (2R,3S,4S)-4-hydroxy-2-[(4-methoxyphenyl)methyl]pyrrolidin-3-yl 3-(4-methylpiperazin-1-yl)propanoate; trifluoroacetic acid] are over 30 µM, over 30 µM and over 30 µM.
As for `COc1ccc(C[C@H]2NC[C@H](O)[C@H]2OC(=O)CCN2CC(=O)NC(=O)C2)cc1` [V186859, (2R,3S,4S)-4-hydroxy-2-[(4-methoxyphenyl)methyl]pyrrolidin-3-yl 3-(3,5-dioxopiperazin-1-yl)propanoate; trifluoroacetic acid], the IC50 with KRAS G12D, in the assay with MYC and in the assay on ALK was under 10 µM each time.
With `COc1ccc(C[C@H]2NC[C@H](O)[C@H]2OC(=O)C2CC(=O)N2)cc1` (stereo partly drawn) [V186864, (2R,3S,4S)-4-hydroxy-2-[(4-methoxyphenyl)methyl]pyrrolidin-3-yl 4-oxoazetidine-2-carboxylate; trifluoroacetic acid], the IC50 was over 30 µM in the assay with KRAS G12D, 10 to 20 µM in the assay on MYC and under 10 µM in the assay on ALK.
Taken in the same sequence, the figures for `COc1ccc(C[C@H]2NC[C@H](O)[C@H]2OC(=O)C2CCO2)cc1` (stereo partly drawn) [V186865, (2R,3S,4S)-4-hydroxy-2-(4-methoxybenzyl)pyrrolidin-3-yl oxetane-2-carboxylate FA salt] were over 30 µM, under 10 µM and under 10 µM.
Taken in the same sequence, the figures for `COc1ccc(C[C@H]2NC[C@H](O)[C@H]2OC(=O)C2CN(C(C)=O)C2)cc1` [V186866, (2R,3S,4S)-4-hydroxy-2-[(4-methoxyphenyl)methyl]pyrrolidin-3-yl 1-acetylazetidine-3-carboxylate] were over 30 µM, 10 to 20 µM and under 10 µM.
Taken in the same sequence, the figures for `COc1ccc(C[C@H]2NC[C@H](O)[C@H]2OC(=O)CCN2C(=O)CNC2=O)cc1` [V186870, (2R,3S,4S)-4-hydroxy-2-[(4-methoxyphenyl)methyl]pyrrolidin-3-yl 3-(2,5-dioxoimidazolidin-1-yl)propanoate] were 10 to 20 µM, under 10 µM and under 10 µM.
As for `COc1ccc(C[C@H]2NC[C@H](O)[C@H]2OC(=O)CCC2CNC2)cc1` [V186873, (2R,3S,4S)-4-hydroxy-2-[(4-methoxyphenyl)methyl]pyrrolidin-3-yl 3-(azetidin-3-yl)propanoate], the IC50 in the assay with KRAS G12D, in the assay with MYC and with ALK was under 10 µM in each case.
On to `C#Cc1ccc(C[C@H]2NC[C@H](O)[C@H]2OC(C)=O)cc1` [V186940], for which the IC50 with KRAS G12D, in the assay on MYC and with ALK was under 10 µM each time.
Take `COc1ccc(C[C@H]2NC[C@H](O)[C@H]2OC(=O)C2CN(C(=O)C3CCOCC3)C2)cc1` [V186989, (2R,3S,4S)-4-hydroxy-2-[(4-methoxyphenyl)methyl]pyrrolidin-3-yl 1-(oxane-4-carbonyl)azetidine-3-carboxylate; trifluoroacetic acid]: the IC50 in the assay on KRAS G12D, in the assay on MYC and in the assay on ALK was over 30 µM each time.
Regarding `COc1ccc(C[C@H]2NC[C@H](O)[C@H]2OC(=O)CCC2CCOCC2)cc1` [V186990, (2R,3S,4S)-4-hydroxy-2-[(4-methoxyphenyl)methyl]pyrrolidin-3-yl 3-(oxan-4-yl)propanoate; trifluoroacetic acid], the IC50 in the assay with KRAS G12D, in the assay with MYC and with ALK was under 10 µM each time.
`CC(=O)O[C@@H]1[C@@H](O)CN[C@@H]1Cc1ccc(C#N)cc1` [V187006, (2R,3S,4S)-2-[(4-cyanophenyl)methyl]-4-hydroxypyrrolidin-3-yl acetate; trifluoroacetic acid]: the 50% inhibitory concentration (IC50) in the assay with KRAS G12D, in the assay on MYC and with ALK was under 10 µM in each case.
Regarding `CC(=O)O[C@@H]1[C@@H](O)CN[C@@H]1Cc1ccc(Cl)cc1` [V187009, (2R,3S,4S)-2-[(4-chlorophenyl)methyl]-4-hydroxypyrrolidin-3-yl acetate; trifluoroacetic acid], the IC50 with KRAS G12D, in the assay with MYC and in the assay with ALK was under 10 µM in each case.
On to `CC(=O)O[C@@H]1[C@@H](O)CN[C@@H]1Cc1ccc(Br)cc1` [V187010, (2R,3S,4S)-2-[(4-bromophenyl)methyl]-4-hydroxypyrrolidin-3-yl acetate; trifluoroacetic acid], for which the IC50 in the assay on KRAS G12D, in the assay with MYC and in the assay with ALK was under 10 µM in each case.

What is called IC50 is the concentration that gives 50% inhibition.
